Source: patent US20230085307A1, “PYRIDAZINONE COMPOUND AND HERBICIDE” (NISSAN CHEMICAL CORPORATION, priority 2019, published 2023)

Assays:
[1] = system: oval-leafed pondweed; assay: Test Example 2: herbicidal activity, application during weed generation under submerged conditions (Table 17, symbol C); assay type: in vivo, oval-leafed pondweed (Monochoria vaginalis); conditions: AAH 320 g/ha; application during weed generation, submerged conditions
In short: (§1)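 Herbicide emulsion, diluted with water to the chosen amount, is applied onto 4 cm floodwater over alluvial soil where the weeds were co-sown and raised at 25–30° C. Application timing: 1–2 leaves. Assessment: three weeks afterwards.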

[2] = system: blackgrass; assay: Test Example 5: herbicidal effect by foliage application, plastic box (Table 20, symbol J); assay type: in vivo, blackgrass (Alopecurus myosuroides); conditions: foliage application, AAH 320 g/ha, evaluated three weeks after application
In short: (§2)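 Plants were sown into sterilized diluvial soil under about 1.5 cm cover and kept in a greenhouse at 25° C. to 30° C. Fourteen days on, foliage received an even spray of the diluted emulsion. Herbicidal or crop effect was judged three weeks afterwards.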

[3] = system: Italian ryegrass; assay: Test Example 4: herbicidal effect by soil treatment (Table 19, symbol K); assay type: in vivo, Italian ryegrass (Lolium multiflorum); conditions: amount of applied herbicide 320 g/ha
In short: (§3)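 Pre-emergence style soil spray: seeds under ~1.5 cm sterilized diluvial soil received a uniform coat of emulsion diluted to the predetermined herbicide amount. Greenhouse 25–30° C; readout at week three on previously defined criteria.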

[4] = system: chickweed; assay: Test Example 4: herbicidal effect by soil treatment (Table 19, symbol P); assay type: in vivo, common chickweed (Stellaria media); conditions: amount of applied herbicide 320 g/ha
In short: as §3

[5] = system: blackgrass; assay: Test Example 4: herbicidal effect by soil treatment (Table 19, symbol J); assay type: in vivo, blackgrass (Alopecurus myosuroides); conditions: amount of applied herbicide 320 g/ha
In short: as §3

[6] = system: chickweed; assay: Test Example 5: herbicidal effect by foliage application, plastic box (Table 20, symbol P); assay type: in vivo, common chickweed (Stellaria media); conditions: foliage application, AAH 320 g/ha, evaluated three weeks after application
In short: as §2

[7] = system: oval-leafed pondweed; assay: Test Example 1: herbicidal activity, application before weed generation under submerged conditions (Table 16, symbol C); assay type: in vivo, oval-leafed pondweed (Monochoria vaginalis); conditions: 320 g/ha applied herbicide
In short: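 Alluvial soil was flooded to 4 cm depth, weed seeds were sown mixed and 2.5-leaf rice seedlings were transplanted. On sowing day, the compound's emulsion, diluted in water to a set dose, was applied to the water surface. Plants grew at 25–30 °C and were scored 0–5 after three weeks.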

[8] = system: green foxtail; assay: Test Example 4: herbicidal effect by soil treatment (Table 19, symbol G); assay type: in vivo, green foxtail (Setaria viridis); conditions: amount of applied herbicide 320 g/ha
In short: as §3

[9] = system: barnyard grass; assay: Test Example 5: herbicidal effect by foliage application, plastic box (Table 20, symbol H); assay type: in vivo, barnyard grass (Echinochloa crus-galli); conditions: foliage application, AAH 320 g/ha, evaluated three weeks after application
In short: as §2

[10] = system: redroot pigweed; assay: Test Example 5: herbicidal effect by foliage application, plastic box (Table 20, symbol N); assay type: in vivo, redroot pigweed (Amaranthus retroflexus); conditions: foliage application, AAH 320 g/ha, evaluated three weeks after application
In short: as §2

[11] = system: late watergrass; assay: Test Example 2: herbicidal activity, application during weed generation under submerged conditions (Table 17, symbol A); assay type: in vivo, late watergrass (Echinochloa oryzicola); conditions: AAH 320 g/ha; application during weed generation, submerged conditions
In short: as §1

[12] = system: rice flat sedge; assay: Test Example 3: herbicidal effect by foliage application, Wagner pot (Table 18, symbol E); assay type: in vivo, rice flat sedge (Cyperus iria); conditions: amount of applied herbicide 320 g/ha
In short: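 Plants were sown in alluvial soil held under 0.1–0.5 cm standing water and grown 14 days in a greenhouse at 25–30 °C. An emulsifiable formulation, water-diluted to the set dose, was then sprayed onto the foliage, and effects were scored three weeks later using previously defined criteria.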

[13] = system: persian speedwell; assay: Test Example 4: herbicidal effect by soil treatment (Table 19, symbol R); assay type: in vivo, Persian speedwell (Veronica persica); conditions: amount of applied herbicide 320 g/ha
In short: as §3

[14] = system: wild oat; assay: Test Example 4: herbicidal effect by soil treatment (Table 19, symbol I); assay type: in vivo, wild oat (Avena fatua); conditions: amount of applied herbicide 320 g/ha
In short: as §3

[15] = system: redroot pigweed; assay: Test Example 4: herbicidal effect by soil treatment (Table 19, symbol N); assay type: in vivo, redroot pigweed (Amaranthus retroflexus); conditions: amount of applied herbicide 320 g/ha
In short: as §3

[16] = system: green foxtail; assay: Test Example 5: herbicidal effect by foliage application, plastic box (Table 20, symbol G); assay type: in vivo, green foxtail (Setaria viridis); conditions: foliage application, AAH 320 g/ha, evaluated three weeks after application
In short: as §2

Cc1nn(C)c(=O)c(-c2c(-c3ccc(OC(F)F)cc3)sc3ccc(F)cc23)c1OC(=O)COc1ccccc1 [2-284]
herbicidal effect rating, C: oval-leafed pondweed [1]: 3 (Herbicidal rate of 40% or more and less than 70%)
J: blackgrass, herbicidal effect (criteria 0-5) [2]: 5 (Herbicidal rate of 90% or more (almost completely withered))
herbicidal effect on K: Italian ryegrass [3]: 5 (Herbicidal rate of 90% or more (almost completely withered))
herbicidal effect on P: chickweed [4]: 4 (Herbicidal rate of 70% or more and less than 90%)
herbicidal effect on J: blackgrass [5]: 5 (Herbicidal rate of 90% or more (almost completely withered))
P: chickweed, herbicidal effect (criteria 0-5) [6]: 5 (Herbicidal rate of 90% or more (almost completely withered))
Herbicidal effect on C: oval-leafed pondweed (grade 0-5) [7]: 3 (Herbicidal rate of 40% or more and less than 70%)
herbicidal effect on G: green foxtail [8]: 5 (Herbicidal rate of 90% or more (almost completely withered))
H: barnyard grass, herbicidal effect (criteria 0-5) [9]: 5 (Herbicidal rate of 90% or more (almost completely withered))
N: redroot pigweed, herbicidal effect (criteria 0-5) [10]: 5 (Herbicidal rate of 90% or more (almost completely withered))
herbicidal effect rating, A: late watergrass [11]: 3 (Herbicidal rate of 40% or more and less than 70%)
herbicidal effect on E: rice flat sedge [12]: 5 (Herbicidal rate of 90% or more (almost completely withered))
herbicidal effect on R: persian speedwell [13]: 5 (Herbicidal rate of 90% or more (almost completely withered))
herbicidal effect on I: wild oat [14]: 3 (Herbicidal rate of 40% or more and less than 70%)
herbicidal effect on N: redroot pigweed [15]: 5 (Herbicidal rate of 90% or more (almost completely withered))
G: green foxtail, herbicidal effect (criteria 0-5) [16]: 5 (Herbicidal rate of 90% or more (almost completely withered))

Cc1ccccc1C(=O)Oc1c(C)nn(C)c(=O)c1-c1c(-c2ccc(OC(F)F)cc2)sc2ccc(F)cc12 [2-285]
herbicidal effect rating, C: oval-leafed pondweed [1]: 0 (Herbicidal rate of 5% or less (almost no effect))
J: blackgrass, herbicidal effect (criteria 0-5) [2]: 4 (Herbicidal rate of 70% or more and less than 90%)
herbicidal effect on K: Italian ryegrass [3]: 2 (Herbicidal rate of 20% or more and less than 40%)
herbicidal effect on P: chickweed [4]: 3 (Herbicidal rate of 40% or more and less than 70%)
herbicidal effect on J: blackgrass [5]: 0 (Herbicidal rate of 5% or less (almost no effect))
P: chickweed, herbicidal effect (criteria 0-5) [6]: 5 (Herbicidal rate of 90% or more (almost completely withered))
Herbicidal effect on C: oval-leafed pondweed (grade 0-5) [7]: 0 (Herbicidal rate of 5% or less (almost no effect))
herbicidal effect on G: green foxtail [8]: 0 (Herbicidal rate of 5% or less (almost no effect))
H: barnyard grass, herbicidal effect (criteria 0-5) [9]: 4 (Herbicidal rate of 70% or more and less than 90%)
N: redroot pigweed, herbicidal effect (criteria 0-5) [10]: 5 (Herbicidal rate of 90% or more (almost completely withered))
herbicidal effect rating, A: late watergrass [11]: 3 (Herbicidal rate of 40% or more and less than 70%)
herbicidal effect on E: rice flat sedge [12]: 5 (Herbicidal rate of 90% or more (almost completely withered))
herbicidal effect on R: persian speedwell [13]: 3 (Herbicidal rate of 40% or more and less than 70%)
herbicidal effect on I: wild oat [14]: 0 (Herbicidal rate of 5% or less (almost no effect))
herbicidal effect on N: redroot pigweed [15]: 0 (Herbicidal rate of 5% or less (almost no effect))
G: green foxtail, herbicidal effect (criteria 0-5) [16]: 3 (Herbicidal rate of 40% or more and less than 70%)

Cc1nn(C)c(=O)c(-c2c(-c3ccc(OC(F)F)cc3)sc3ccc(F)cc23)c1OC(=O)c1cccs1 [2-288]
herbicidal effect rating, C: oval-leafed pondweed [1]: 3 (Herbicidal rate of 40% or more and less than 70%)
J: blackgrass, herbicidal effect (criteria 0-5) [2]: 4 (Herbicidal rate of 70% or more and less than 90%)
herbicidal effect on K: Italian ryegrass [3]: 4 (Herbicidal rate of 70% or more and less than 90%)
herbicidal effect on P: chickweed [4]: 4 (Herbicidal rate of 70% or more and less than 90%)
herbicidal effect on J: blackgrass [5]: 0 (Herbicidal rate of 5% or less (almost no effect))
P: chickweed, herbicidal effect (criteria 0-5) [6]: 5 (Herbicidal rate of 90% or more (almost completely withered))
Herbicidal effect on C: oval-leafed pondweed (grade 0-5) [7]: 4 (Herbicidal rate of 70% or more and less than 90%)
herbicidal effect on G: green foxtail [8]: 4 (Herbicidal rate of 70% or more and less than 90%)
H: barnyard grass, herbicidal effect (criteria 0-5) [9]: 5 (Herbicidal rate of 90% or more (almost completely withered))
N: redroot pigweed, herbicidal effect (criteria 0-5) [10]: 5 (Herbicidal rate of 90% or more (almost completely withered))
herbicidal effect rating, A: late watergrass [11]: 3 (Herbicidal rate of 40% or more and less than 70%)
herbicidal effect on E: rice flat sedge [12]: 5 (Herbicidal rate of 90% or more (almost completely withered))
herbicidal effect on R: persian speedwell [13]: 5 (Herbicidal rate of 90% or more (almost completely withered))
herbicidal effect on I: wild oat [14]: 0 (Herbicidal rate of 5% or less (almost no effect))
herbicidal effect on N: redroot pigweed [15]: 4 (Herbicidal rate of 70% or more and less than 90%)
G: green foxtail, herbicidal effect (criteria 0-5) [16]: 5 (Herbicidal rate of 90% or more (almost completely withered))

COCCOC(=O)Oc1c(C)nn(C)c(=O)c1-c1c(-c2ccc(OC(F)F)cc2)sc2ccc(F)cc12 [2-295]
herbicidal effect rating, C: oval-leafed pondweed [1]: 3 (Herbicidal rate of 40% or more and less than 70%)
J: blackgrass, herbicidal effect (criteria 0-5) [2]: 4 (Herbicidal rate of 70% or more and less than 90%)
herbicidal effect on K: Italian ryegrass [3]: 5 (Herbicidal rate of 90% or more (almost completely withered))
herbicidal effect on P: chickweed [4]: 4 (Herbicidal rate of 70% or more and less than 90%)
herbicidal effect on J: blackgrass [5]: 4 (Herbicidal rate of 70% or more and less than 90%)
P: chickweed, herbicidal effect (criteria 0-5) [6]: 5 (Herbicidal rate of 90% or more (almost completely withered))
Herbicidal effect on C: oval-leafed pondweed (grade 0-5) [7]: 2 (Herbicidal rate of 20% or more and less than 40%)
herbicidal effect on G: green foxtail [8]: 5 (Herbicidal rate of 90% or more (almost completely withered))
H: barnyard grass, herbicidal effect (criteria 0-5) [9]: 5 (Herbicidal rate of 90% or more (almost completely withered))
N: redroot pigweed, herbicidal effect (criteria 0-5) [10]: 5 (Herbicidal rate of 90% or more (almost completely withered))
herbicidal effect rating, A: late watergrass [11]: 5 (Herbicidal rate of 90% or more (almost completely withered))
herbicidal effect on E: rice flat sedge [12]: 5 (Herbicidal rate of 90% or more (almost completely withered))
herbicidal effect on R: persian speedwell [13]: 5 (Herbicidal rate of 90% or more (almost completely withered))
herbicidal effect on I: wild oat [14]: 1 (Herbicidal rate of 5% or more and less than 20%)
herbicidal effect on N: redroot pigweed [15]: 5 (Herbicidal rate of 90% or more (almost completely withered))
G: green foxtail, herbicidal effect (criteria 0-5) [16]: 5 (Herbicidal rate of 90% or more (almost completely withered))
